Assay results: PMC6268935, “Antiatherogenic Properties of Acetone Extract of Alpinia zerumbet Seeds” (Molecules, 2012)
Values after ≈ are worked out from the molar mass of the structure shown. Read-outs that look alike come from different tables or passages of the source.

How the values were obtained:
[1] = target: T1, porcine pancreatic lipase (PL) (Sus scrofa, UniProt P00591); test: Pancreatic lipase inhibition assay (p-NPB hydrolysis); assay type: biochemical
T1 sequence (P00591 1-450): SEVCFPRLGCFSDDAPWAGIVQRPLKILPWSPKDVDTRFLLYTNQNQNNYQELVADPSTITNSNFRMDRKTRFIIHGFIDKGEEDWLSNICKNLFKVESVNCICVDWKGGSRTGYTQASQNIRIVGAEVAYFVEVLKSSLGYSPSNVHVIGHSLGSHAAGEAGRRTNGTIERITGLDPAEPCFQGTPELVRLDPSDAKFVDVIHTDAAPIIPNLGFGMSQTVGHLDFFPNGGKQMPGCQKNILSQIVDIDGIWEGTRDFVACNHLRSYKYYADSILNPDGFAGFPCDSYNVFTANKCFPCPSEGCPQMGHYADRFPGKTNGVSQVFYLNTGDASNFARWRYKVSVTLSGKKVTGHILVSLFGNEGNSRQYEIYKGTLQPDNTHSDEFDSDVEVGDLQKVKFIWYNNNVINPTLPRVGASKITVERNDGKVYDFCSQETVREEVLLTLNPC
Description: The ability of the different parts of crude extracts to inhibit PL was measured as described previously, with slight modifications. Briefly, an enzyme buffer was prepared by the addition of 30 μL (10 units) of PL solution (in 10 mM MOPS and 1 mM EDTA, pH 6.8) to 850 μL of Tris buffer (100 mM Tris-HCl and 5 mM CaCl2, pH 7.0). […] The reaction was allowed to proceed for 15 min at 37 °C after addition of 20 μL of the substrate solution (10 mM p-NPB in dimethyl formamide). The lipase activity was determined by measuring the hydrolysis of p-NPB to p-nitrophenol at 400 nm using microplate reader. Inhibition of the lipase activity was expressed as the percentage decrease in the OD when PL was incubated with the test compounds.

[2] = test system: low-density lipoprotein cholesterol from human plasma (LDL); test: LDL oxidation inhibition assay (CuSO4-induced, TBARS); assay type: biochemical; conditions: copper-induced LDL oxidation, n = 3
Description: The oxidation of LDL was investigated as described by Rattan and Arad. […] The reaction was stopped by adding 50 μL of 1 M EDTA and placing the sample at −20 °C for TBA reactive substance (TBARS) assay. The generation of malonyldialdehyde (MDA) equivalents during LDL oxidation was estimated by the TBARS assay using the method of Steinbrecher et al.. LDL oxidation was carried out as described above. After oxidation, LDL was mixed with 1.5 mL of 0.67% TBA and 1.5 mL of 20% TCA. After placing samples in boiling water (100 °C) for 30 min, the reaction product was kept for 30 min at 25 °C and centrifuged for 15 min at 4 °C. The supernatants were read on a spectrophotometer at 532 nm, blank containing 220 μg/mL LDL only. The yields of MDA were used as a standard and the results were expressed as nanomoles of MDA equivalents.

[3] = test system: enzymes in the cholesterol biosynthetic pathway; conditions: cited from earlier work
[4] = target: T2, 15-Lipoxygenase from soybean (15-LO) (Glycine max, UniProt P08170); test: 15-Lipoxygenase inhibition assay (linoleic acid substrate); assay type: biochemical
T2 construct: purchased Cayman Chemical Company
Description: The final enzyme concentration was 500 units/mL and the test samples were dissolved in DMSO solutions. All measurements were carried out at least twice, in each instance using caffeic and ferulic acids, a well-known inhibitor of 15-LO, as positive controls.

[5] = test system: accelerated atherosclerosis in native hearts; parameters: method as in PMID 8419015; conditions: native hearts of a rabbit heart transplant model; cited from earlier work
[6] = normal human; cited from earlier work
tyrosinase mushroom = tyrosinase mushroom (Agaricus bisporus, UniProt C7FF04); test: Anti-tyrosinase activity assay; assay type: biochemical; conditions: n = 3
Description: Tyrosinase activity inhibition was determined by the method as described previously [29]. In brief, sample extracts were dissolved in methanol to make the different concentrations (μg/mL). The 96-well plate was set up in the following order; 120 μL of phosphate buffer (20 mM, pH 6.8), 20 μL of sample and 20 μL of tyrosinase mushroom (500 units/mL in 20 mM phosphate buffer). After incubation at 25 °C for 15 min, reaction was initiated by adding 20 μL of 0.85 mM L-tyrosine solution to each well. The enzyme activity was determined by measuring the absorbance at 470 nm using microplate reader (BioRad, Benchmark microplate reader, Hertfordshire, UK). […] The percentage of tyrosinase inhibition was calculated as follows:
where, A = absorbance of the control with enzyme; B = absorbance of the control without enzyme; C = absorbance of the test sample with enzyme; D = absorbance of the test sample without enzyme.

human cancer cell line = test system: human cancer cell line; parameters: method as in PMID 19382453; conditions: cited from earlier work
[7] = test system: rat hepatic stellate cells; parameters: method as in PMID 15787259; conditions: cited from earlier work
[8] = n = 3, read-out: IC50 pancreatic lipase (PL) inhibition (converted)
[9] = n = 3, read-out: IC50 15-LO inhibition (converted)

T2 sequence (P08170 whole entry): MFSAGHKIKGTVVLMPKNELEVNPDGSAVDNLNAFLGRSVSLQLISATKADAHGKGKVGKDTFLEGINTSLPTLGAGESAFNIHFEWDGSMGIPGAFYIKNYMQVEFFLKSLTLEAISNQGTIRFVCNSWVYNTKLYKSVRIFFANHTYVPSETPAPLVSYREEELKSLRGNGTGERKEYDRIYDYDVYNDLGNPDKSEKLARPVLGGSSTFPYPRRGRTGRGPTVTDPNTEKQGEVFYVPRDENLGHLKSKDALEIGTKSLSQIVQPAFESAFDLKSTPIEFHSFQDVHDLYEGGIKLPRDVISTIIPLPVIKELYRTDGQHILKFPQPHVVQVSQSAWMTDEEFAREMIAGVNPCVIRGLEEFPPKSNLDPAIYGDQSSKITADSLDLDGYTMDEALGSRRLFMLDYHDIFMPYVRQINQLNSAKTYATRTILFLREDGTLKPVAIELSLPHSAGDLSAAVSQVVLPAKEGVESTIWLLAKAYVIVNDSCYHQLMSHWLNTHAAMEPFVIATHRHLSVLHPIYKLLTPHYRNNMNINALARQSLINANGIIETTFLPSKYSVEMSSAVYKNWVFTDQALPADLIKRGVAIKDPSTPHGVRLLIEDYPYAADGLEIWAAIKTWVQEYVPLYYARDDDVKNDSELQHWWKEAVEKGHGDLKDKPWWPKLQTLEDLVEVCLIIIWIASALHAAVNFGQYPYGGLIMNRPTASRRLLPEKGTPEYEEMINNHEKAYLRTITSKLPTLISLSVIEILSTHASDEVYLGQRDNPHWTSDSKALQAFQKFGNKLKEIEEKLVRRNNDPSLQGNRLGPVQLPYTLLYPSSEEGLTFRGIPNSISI
Sequence of tyrosinase mushroom (C7FF04 1-392): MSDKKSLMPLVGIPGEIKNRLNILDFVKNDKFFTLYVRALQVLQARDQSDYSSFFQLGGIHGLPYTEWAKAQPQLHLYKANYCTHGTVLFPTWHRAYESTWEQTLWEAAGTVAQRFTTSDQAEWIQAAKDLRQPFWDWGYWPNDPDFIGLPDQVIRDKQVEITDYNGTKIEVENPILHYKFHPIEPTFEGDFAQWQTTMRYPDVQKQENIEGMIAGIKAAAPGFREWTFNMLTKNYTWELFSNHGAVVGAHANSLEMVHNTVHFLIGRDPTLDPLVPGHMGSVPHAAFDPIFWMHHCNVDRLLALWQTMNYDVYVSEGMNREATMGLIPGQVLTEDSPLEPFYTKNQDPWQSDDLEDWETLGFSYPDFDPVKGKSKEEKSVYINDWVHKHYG

For `CC(C)[C@H](C)CC[C@@H](C)[C@H]1CC[C@H]2[C@@H]3CC=C4C[C@@H](O)CC[C@]4(C)[C@H]3CC[C@]12C` [campesterol], the IC50 [1] is given as 323 µM, the “IC50 LDL oxidation inhibition” value [2] is given as 149.02 ± 1.93 µg/mL (≈ 372 µM) and the “inhibition of enzymes in the cholesterol biosynthetic pathway / cholesterol biosynthesis” value [3] is given as “could not inhibit”. It also gave an IC50 [4] of 361 µM.
With `O=c1c(O)c(-c2ccc(O)c(O)c2)oc2cc(O)cc(O)c12` [quercetin, reference compound] the “IC50 LDL oxidation inhibition” value [2] was 22.56 ± 0.70 µg/mL (≈ 74.6 µM).
For `C[C@]12CC[C@H](O)CC1=CC[C@@H]1[C@@H]2CC[C@]2(C)C(=O)CC[C@@H]12` [dehydroepiandrosterone, 3β-hydroxy-5-androsten-17-one], the “effect on development of accelerated atherosclerosis” value [5] is given as “inhibited the development of accelerated atherosclerosis” and the “effect on serum LDL level” value [6] is given as “reduce serum LDL level”.
In the case of `CC[C@H](CC[C@@H](C)[C@H]1CC[C@H]2[C@@H]3CC=C4C[C@@H](O)CC[C@]4(C)[C@H]3CC[C@]12C)C(C)C` [sitosterol], the “IC50 pancreatic lipase (PL) inhibition” value ([1]; n = 3) is reported as 99.99 ± 1.86 µg/mL (≈ 241 µM), the IC50 tyrosinase inhibition (tyrosinase mushroom) is reported as 187.77 ± 0.04 µg/mL (≈ 453 µM) and the “IC50 LDL oxidation inhibition” value [2] is reported as 97.76 ± 0.77 µg/mL (≈ 236 µM). For the same compound, the “inhibition of enzymes in the cholesterol biosynthetic pathway / cholesterol biosynthesis” value [3] was “could not inhibit” and the “IC50 15-LO inhibition” value ([4]; n = 3) was 123.34 ± 1.94 µg/mL (≈ 297 µM).
For `CC[C@H](/C=C/[C@@H](C)[C@H]1CC[C@H]2[C@@H]3CC=C4C[C@@H](O)CC[C@]4(C)[C@H]3CC[C@]12C)C(C)C` [stigmasterol], the IC50 [1, 8] is listed as 303 µM, the “IC50 LDL oxidation inhibition” value [2] is listed as 50.01 ± 0.77 µg/mL (≈ 121 µM) and the “inhibition of enzymes in the cholesterol biosynthetic pathway / cholesterol biosynthesis” value [3] is listed as “inhibitory effects”. For the same compound, the IC50 [4, 9] was 182 µM.
With `COc1cc(/C=C/C(=O)O)ccc1O` [ferulic acid, reference compound] the “IC50 15-LO inhibition” value ([4]; n = 3) was 54.79 ± 1.12 µg/mL (≈ 282 µM).
For `CC(C)CCC[C@@H](C)[C@H]1CC[C@H]2[C@@H]3CC(=O)C4=CC(=O)CC[C@]4(C)[C@H]3CC[C@]12C` [cholest-4-ene-3,6-dione], the IC50 [1, 8] is given as 48.9 µM, the “IC50 LDL oxidation inhibition” value [2] is given as 16.12 ± 1.43 µg/mL (≈ 40.4 µM) and the “cytotoxic activity against human cancer cell line” value (human cancer cell line) is given as “cytotoxic activity”. The “inhibitory activity on proliferation of rat hepatic stellate cells” value [7] was “inhibitory activity” and the IC50 [4, 9] was 85.8 µM.
